Drawing on ChEMBL document CHEMBL4270626, “Synthesis and antitumor activity of epothilone B” (Eur J Med Chem, 2018), this text covers IC50 for one compound.

Experiment [1] has as its target Tubulin. In words: […] in human MCF7 cells assessed as induction of mitotic arrest. Type of experiment: cell-based.
For experiment [2], the system named is RPMI-8226. Put plainly: Antiproliferative activity against human […] cells assessed as inhibition of cell proliferation. It counts as functional, cell-based.
A short description of experiment [3]: Antiproliferative activity against human RPMI8226/MR20 cells assessed as inhibition of cell proliferation. Type of experiment: functional, cell-based. The note with it: RPMI-8226.
Experiment [4] deals with U-266. In words: Antiproliferative activity against human U266 cells assessed as inhibition of cell proliferation. Type of experiment: functional, cell-based.
The nature of experiment [5]: Antiproliferative activity against human 8226/LR-5 cells assessed as inhibition of cell proliferation. It counts as functional, cell-based.
Experiment [6] has as its system Hs-578T. Put plainly: Cytotoxicity against human Hs 578T cells. Type of experiment: functional, cell-based.
The test system of experiment [7] is KB 3-1. In words: Cytotoxicity against human KB3-1 cells. It counts as functional, cell-based.
For experiment [8], the system named is MM1.S. Put plainly: Antiproliferative activity against human MM1S cells assessed as inhibition of cell proliferation. Type of experiment: functional, cell-based.
Experiment [9] deals with HCT-116. Put plainly: Antiproliferative activity against human HCT116 cells assessed as inhibition of cell proliferation. It counts as functional, cell-based.
Experiment [10] is described as follows: Inhibition of GFP-tagged alpha-tubulin (unknown origin) expressed in human MCF7 cells assessed as disruption of microtubule polymerization. Type of experiment: cell-based.
Experiment [11] concerns KB-V1. In words: Cytotoxicity against human KBV1 cells. It counts as functional, cell-based.
The test system of experiment [12] is HeLa. In words: Cytotoxicity against human HeLa cells. It counts as functional, cell-based.
The nature of experiment [13]: Inhibition of paclitaxel binding to microtubule (unknown origin). Set-up: species or system Homo sapiens.

With `C/C(=C\c1csc(C)n1)[C@@H]1C[C@@H]2O[C@]2(C)CCC[C@H](C)[C@H](O)[C@@H](C)C(=O)C(C)(C)[C@@H](O)CC(=O)O1` [PATUPILONE], the IC50 (as a rule, the concentration needed to halve the response being measured) is 3.5 nM in experiment [1]; 1 to 10 nM in [2]; 1 to 10 nM in experiment [3]; 1 to 10 nM in [4]; 1 to 10 nM in [5]; 3 to 92 nM in experiment [6]. The IC50 was 3 to 92 nM in experiment [7]; 1 to 10 nM in [8]; 0.8 nM in [9]; 3.5 nM in experiment [10]; 3 to 92 nM in [11]; 3 to 92 nM in [12]. The compound also gave a 50% inhibitory concentration (IC50) in experiment [13] of 3.3 nM.
